Here are results for 3 compounds from patent publication US9938525B2, “Compositions and methods for selective delivery of oligonucleotide molecules to cell types” (nLife Therapeutics, S.L., priority 2012, dated 2018).

One data set addresses T1, human 5HT1A receptor (Homo sapiens, UniProt P08908).
T1 construct: expressed in transfected cells; host or cells: CHO
T1 sequence (P08908 1-422): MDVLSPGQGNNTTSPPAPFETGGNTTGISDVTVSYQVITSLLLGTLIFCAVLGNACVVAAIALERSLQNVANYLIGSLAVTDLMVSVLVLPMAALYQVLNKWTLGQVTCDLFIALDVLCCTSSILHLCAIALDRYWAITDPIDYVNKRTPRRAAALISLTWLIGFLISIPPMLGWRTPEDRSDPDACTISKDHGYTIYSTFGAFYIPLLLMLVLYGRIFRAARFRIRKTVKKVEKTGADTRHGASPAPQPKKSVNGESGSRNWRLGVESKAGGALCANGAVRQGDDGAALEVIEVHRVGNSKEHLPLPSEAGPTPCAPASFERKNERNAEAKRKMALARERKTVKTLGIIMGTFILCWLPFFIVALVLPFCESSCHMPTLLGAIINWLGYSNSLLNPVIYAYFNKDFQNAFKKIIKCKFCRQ
Description: Binding to 5HT1A: displacement of 3H-8-OH-DPAT in CHO cells overexpressing human 5HT1A receptor. Background: Loss of bound radioactivity is the signal in a displacement assay; it reports binding, not function.

In the next data set the target is T2, 5HT3 (Homo sapiens, UniProt P46098).
T2 construct: expressed in transfected cells; host or cells: HEK (HEK-5HT3)
T2 sequence (P46098 24-478): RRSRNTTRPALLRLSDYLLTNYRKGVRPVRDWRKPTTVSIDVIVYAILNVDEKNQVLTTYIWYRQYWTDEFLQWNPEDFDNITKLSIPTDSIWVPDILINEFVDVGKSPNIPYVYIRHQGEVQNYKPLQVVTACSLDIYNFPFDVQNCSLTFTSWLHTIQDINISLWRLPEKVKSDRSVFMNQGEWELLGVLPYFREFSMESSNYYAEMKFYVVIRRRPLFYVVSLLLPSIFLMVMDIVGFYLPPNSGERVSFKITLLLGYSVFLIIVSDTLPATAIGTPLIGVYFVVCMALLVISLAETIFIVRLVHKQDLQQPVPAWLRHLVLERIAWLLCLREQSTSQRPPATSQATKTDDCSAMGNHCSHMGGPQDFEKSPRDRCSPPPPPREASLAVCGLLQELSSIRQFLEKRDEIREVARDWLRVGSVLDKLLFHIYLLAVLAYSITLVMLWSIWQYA
Kind of data set: Binding to 5HT3: displacement of 3H-GR65630 in HEK-5HT3. To be noted: displacement of 3H-GR65630 (0.5 nM), HEK-5HT3, 3 ug of protein per well. The protocol:
FIG. 6. Binding of 1319 to 5HT3. Displacement of 3H-GR65630 (0.5 nM). Data are presented as mean±SD, n=4 from one experiment. Kd of GR65630 was determined from a saturation assay.
Displacement of 3H-GR65630 (0.5 nM) with increasing concentrations of 1319 (from 0.1 nM to 10 uM), Lerisetron-C6-acyl and not derivatized Lerisetron (from 0.1 nM to 30 uM), in HEK-5HT3: 3 ug of protein per well is shown in Table 11.

For a further data set, the system named is Ataxin-I mRNA. Kind of data set: Knockdown of Ataxin I in Purkinje cells of the cerebellum (in situ hybridization, optical density). Type of data set: in vivo, mouse. To be noted: C57/B16 mice, intranasal 4 mg/kg/day for four consecutive days, 24 hours after last administration; ± s.e.m. The source says: FIG. 5. Microphotographs of sagittal cerebellum sections labeled with a probe for Ataxin-1. A) and B) Arrows indicate the Purkinje cells layer, ML: molecular layer, GL: granular layer. A: example of animal treated with PBS, B: example of animal treated with 5-nonyloxytryptamine oxalate conjugated to a siRNA against mRNA for Ataxin-I (NP-1297). C: Quantification of optical density (ImageJ) in the Purkinje cells layer in arbitrary units (O.D. (a.u.)) normalized against PBS showing a significant decrease (48%±5 s.e.m.) in animals treated with NP-1297 (t test, *p<0.02).
5-HT1B receptors are expressed in the Purkinje cells of the cerebellum and using the agonist 5-nonyloxytryptamine oxalate for these receptors, conjugated to a siRNA against mRNA for Ataxin-I, we knockdown this protein only in Purkinje cells. Ataxin-1-siRNA sequence (Lee et al., Nat Neurosci 11, 1137-1139 (2008))
For this, five C57/B16 wild type mice were intranasally administered with the conjugated molecule at a concentration of 4 mg/kg/day for four consecutive days and five animals of the same strain were treated with PBS as a control; 24 hours after last administration animals were sacrificed and the brain was processed for in situ hybridization with colorimetric detection. A probe 45 nucleotides long complementary to mouse Ataxin-I mRNA and labeled with digoxigenin at both ends (5′ and 3′) was used. […]

Description for human 5HT1A receptor: 10 ug of protein per well preincubated 15 min and incubated 60 min RT.

`Nc1ccc(CCN2CCN(c3cccc(C(F)(F)F)c3)CC2)cc1` [LY-165,163, 1-[2-(4-aminophenyl)ethyl]-4-(3-trifluoromethylphenyl)-piperazine] registered an IC50 on human 5HT1A receptor of 1.1 nM.

At 5HT3, `c1ccc(Cn2c(N3CCNCC3)nc3ccccc32)cc1` [Lerisetron, 1-benzyl-2-piperazin-1-yl-1H-benzimidazole] yielded an IC50 of 7 nM.

As to “NP-1297: 5-nonyloxytryptamine oxalate conjugated to a siRNA against mRNA for Ataxin-I (SEQ ID NO: 9/10) (chain 1 GAUCUAACGUGGGCAAGUATT; chain 2 UACUUGCCCACGUUAGAUCTT; 5-nonyloxytryptamine conjugated, attachment position not given here)”, the “Decrease of optical density (Ataxin-1 probe) in the Purkinje cells layer normalized against PBS” value in the data set with Ataxin-I mRNA is 48%±5.

Broadly, the IC50 is the concentration that inhibits the measured activity by half.
